Data on five molecules can be found in ChEMBL document CHEMBL5346947, “Targeting the Estrogen Receptor for the Treatment of Breast Cancer: Recent Advances and Challenges” (J Med Chem, 2023).

The nature of series [1]: Antitumor activity against human HCI-013 cells xenograft mouse model assessed as tumor growth inhibition at 100 mg/kg relative to control. In kind it is functional. The conditions noted are these: read-out: TGI. Background: In xenograft studies the graft and the host belong to different species.
The nature of series [2]: Antitumor activity in tamoxifen-resistant human MCF7 cells xenografted in 17beta-estradiol-treated NOD/SCID mouse model assessed as tumor growth inhibition at 60 mg/kg, po QD for 28 days relative to control. Type of series: functional. The conditions noted are these: tamoxifen-resistant MCF7 cell, 672 h, time 28 day, read-out: TGI.
In series [3] the target is Estrogen receptor beta (Homo sapiens, UniProt Q92731). Briefly: Inhibition of ERbeta (261 to 500 residues) in doxycycline-induced human HEK293 cells incubated overnight by luciferase based assay. Type of series: cell-based.
Series [4] has as its system MCF7. Briefly: cells. The conditions noted are these: Homo sapiens.
Description: Anti-proliferative activity against wild type human MCF7 cells assessed as reduction in cell growth by CellTiter-Glo assay
Series [5] has as its system MCF7. Briefly: cells. The conditions noted are these: Homo sapiens. The source holds these as a separate data set.
Series [6] has as its system MCF7. Briefly: cells. Particulars: Homo sapiens. This is another data set of the same source.
Series [7] concerns the target T1, Protein cereblon/Estrogen receptor (Homo sapiens) (UniProt P03372+Q96SW2). The experiment in a line: Protac activity at E3 ubiquitin-protein ligase/ERalpha in human MCF7 cells xenografted in 17beta-estradiol-treated NOD/SCID mouse model assessed as reduction in ERalpha degradation at 3 mg/kg and measured after 18 hrs post last dose relative to control. Type of series: organism-based. More on the design: scale not given: the % may be the effect or the level left.

A short description of series [8]: Antitumor activity in tamoxifen-resistant human MCF7 cells xenografted in 17beta-estradiol-treated NOD/SCID mouse model assessed as tumor growth inhibition at 30 mg/kg, po QD for 28 days relative to control. In kind it is functional. Particulars: tamoxifen-resistant MCF7 cell, 672 h, time 28 day, read-out: TGI.
A short description of series [9]: Antitumor activity in tamoxifen-resistant human MCF7 cells xenografted in 17beta-estradiol-treated NOD/SCID mouse model assessed as tumor growth inhibition at 30 mg/kg, po QD for 28 days in the presence of palbociclib at 60 mg/kg relative to control. Type of series: functional. The conditions noted are these: tamoxifen-resistant MCF7 cell, 672 h, time 28 day, read-out: TGI.

For series [10], the system named is MCF7. The experiment in a line: animal or person. The conditions noted are these: Mus musculus, MCF7, 18 h, read-out: TGI.
Description: Antitumor activity in human MCF7 cells xenografted in 17beta-estradiol-treated NOD/SCID mouse model assessed as tumor growth inhibition at 10 mg/kg, sc and measured after 18 hrs post last dose
Series [11] concerns MCF7. The experiment in a line: animal or person. Particulars: Mus musculus, MCF7, 18 h, read-out: TGI. The source holds these as a separate data set.
Description: Antitumor activity in human MCF7 cells xenografted in 17beta-estradiol-treated NOD/SCID mouse model assessed as tumor growth inhibition at 30 mg/kg, sc and measured after 18 hrs post last dose
Series [12] has as its system MCF7. The experiment in a line: animal or person. Particulars: Mus musculus, MCF7, po, 672 h, read-out: TGI.
Description: Antitumor activity in human MCF7 cells xenografted in 17beta-estradiol-treated NOD/SCID mouse model assessed as tumor growth inhibition at 30 mg/kg, po QD for 28 days relative to control
For series [13], the system named is MCF7. Briefly: animal or person. The conditions noted are these: Mus musculus, MCF7, 336 h, read-out: TGI.
Description: Antitumor activity in human MCF7 cells xenografted in 17beta-estradiol-treated NOD/SCID mouse model assessed as tumor growth inhibition at 200 mg/kg, sc BIW for 2 weeks in the presence of palbociclib at 60 mg/kg relative to control
For series [14], the system named is MCF7. The experiment in a line: animal or person. Particulars: Mus musculus, MCF7, po, 672 h, read-out: TGI. The source holds these as a separate data set.
Description: Antitumor activity in human MCF7 cells xenografted in 17beta-estradiol-treated NOD/SCID mouse model assessed as tumor growth inhibition at 30 mg/kg, po QD for 28 days in the presence of palbociclib at 60 mg/kg relative to control
The nature of series [15]: Cmax in human MCF7 cells xenografted in 17beta-estradiol-treated NOD/SCID mouse model at 3 mg/kg, po and measured after 18 hrs post last dose. Particulars: in vivo.
Series [16] in a line: Cmax in human MCF7 cells xenografted in 17beta-estradiol-treated NOD/SCID mouse model at 10 mg/kg, po and measured after 18 hrs post last dose. The conditions noted are these: in vivo.
Series [17] in a line: Cmax in human MCF7 cells xenografted in 17beta-estradiol-treated NOD/SCID mouse model at 30 mg/kg, po and measured after 18 hrs post last dose. Particulars: in vivo.
Series [18] in a line: AUC (0-24hrs) in human MCF7 cells xenografted in 17beta-estradiol-treated NOD/SCID mouse model at 3 mg/kg, po and measured after 18 hrs post last dose. Particulars: in vivo.
Series [19] is described as follows: AUC (0-24hrs) in human MCF7 cells xenografted in 17beta-estradiol-treated NOD/SCID mouse model at 10 mg/kg, po and measured after 18 hrs post last dose. The conditions noted are these: in vivo.
The nature of series [20]: AUC (0-24hrs) in human MCF7 cells xenografted in 17beta-estradiol-treated NOD/SCID mouse model at 30 mg/kg, po and measured after 18 hrs post last dose. The conditions noted are these: in vivo.
In series [21] the target is T1, Protein cereblon/Estrogen receptor (Homo sapiens). Briefly: Protac activity at E3 ubiquitin-protein ligase/ERalpha in human MCF7 cells xenografted in 17beta-estradiol-treated NOD/SCID mouse model assessed as reduction in ERalpha degradation at 10 mg/kg, po and measured after 18 hrs post last dose relative to control. More on the design: scale not given: the % may be the effect or the level left.

For series [22] the target is unchanged. The experiment in a line: Protac activity at E3 ubiquitin-protein ligase/ERalpha in human MCF7 cells xenografted in 17beta-estradiol-treated NOD/SCID mouse model assessed as reduction in ERalpha degradation at 30 mg/kg, po and measured after 18 hrs post last dose relative to control. More on the design: scale not given: the % may be the effect or the level left.

The test system of series [23] is MCF7. Briefly: Antitumor activity against human MCF7 cells xenograft model assessed as tumor growth inhibition at 30 mg/kg relative to control. Type of series: functional. Particulars: read-out: TGI.
Series [24] has as its system MCF7. Briefly: Antitumor activity against human MCF7 cells xenograft model assessed as tumor growth inhibition at 60 mg/kg relative to control. Type of series: functional. The conditions noted are these: read-out: TGI.
Series [25] deals with MCF7. The experiment in a line: Antitumor activity against human MCF7 cells xenograft model assessed as tumor growth inhibition at 90 mg/kg relative to control. The conditions noted are these: read-out: TGI. Type of series: functional.
Series [26] relates to MCF7. The experiment in a line: Antitumor activity against human MCF7 cells xenograft model assessed as tumor growth inhibition at 120 mg/kg relative to control. Type of series: functional. Particulars: read-out: TGI.

Molecules are shown by their SMILES. pEC50, pIC50: −log10 of the molar value.

T1 sequence (P03372 whole entry, looked up): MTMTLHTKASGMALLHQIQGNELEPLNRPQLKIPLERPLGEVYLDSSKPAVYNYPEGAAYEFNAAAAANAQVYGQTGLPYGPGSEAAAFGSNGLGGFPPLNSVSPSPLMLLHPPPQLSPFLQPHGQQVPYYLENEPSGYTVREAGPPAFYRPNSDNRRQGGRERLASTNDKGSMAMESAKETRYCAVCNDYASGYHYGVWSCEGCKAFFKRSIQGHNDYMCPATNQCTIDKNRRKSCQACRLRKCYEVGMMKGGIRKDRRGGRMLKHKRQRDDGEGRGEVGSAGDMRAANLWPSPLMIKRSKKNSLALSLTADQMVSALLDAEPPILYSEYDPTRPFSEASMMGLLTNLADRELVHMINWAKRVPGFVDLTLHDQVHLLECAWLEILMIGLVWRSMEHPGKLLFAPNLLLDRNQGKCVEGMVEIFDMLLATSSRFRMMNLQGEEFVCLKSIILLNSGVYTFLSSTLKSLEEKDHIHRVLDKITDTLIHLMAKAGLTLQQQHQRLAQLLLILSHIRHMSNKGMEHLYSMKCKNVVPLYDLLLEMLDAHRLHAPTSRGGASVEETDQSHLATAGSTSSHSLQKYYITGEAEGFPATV
T1 sequence (Q96SW2 whole entry, looked up): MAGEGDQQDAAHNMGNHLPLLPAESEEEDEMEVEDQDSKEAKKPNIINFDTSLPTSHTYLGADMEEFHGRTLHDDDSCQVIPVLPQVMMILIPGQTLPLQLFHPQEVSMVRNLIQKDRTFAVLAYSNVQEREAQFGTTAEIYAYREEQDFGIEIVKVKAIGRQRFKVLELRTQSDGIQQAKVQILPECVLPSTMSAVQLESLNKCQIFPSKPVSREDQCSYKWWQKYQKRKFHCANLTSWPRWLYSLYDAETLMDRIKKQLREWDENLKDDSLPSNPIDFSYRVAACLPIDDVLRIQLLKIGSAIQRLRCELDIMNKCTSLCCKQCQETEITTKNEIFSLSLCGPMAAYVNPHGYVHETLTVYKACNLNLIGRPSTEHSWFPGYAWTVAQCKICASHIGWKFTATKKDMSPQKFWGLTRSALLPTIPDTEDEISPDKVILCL
Estrogen receptor beta, sequence (Q92731 whole entry, the tested form may be a part): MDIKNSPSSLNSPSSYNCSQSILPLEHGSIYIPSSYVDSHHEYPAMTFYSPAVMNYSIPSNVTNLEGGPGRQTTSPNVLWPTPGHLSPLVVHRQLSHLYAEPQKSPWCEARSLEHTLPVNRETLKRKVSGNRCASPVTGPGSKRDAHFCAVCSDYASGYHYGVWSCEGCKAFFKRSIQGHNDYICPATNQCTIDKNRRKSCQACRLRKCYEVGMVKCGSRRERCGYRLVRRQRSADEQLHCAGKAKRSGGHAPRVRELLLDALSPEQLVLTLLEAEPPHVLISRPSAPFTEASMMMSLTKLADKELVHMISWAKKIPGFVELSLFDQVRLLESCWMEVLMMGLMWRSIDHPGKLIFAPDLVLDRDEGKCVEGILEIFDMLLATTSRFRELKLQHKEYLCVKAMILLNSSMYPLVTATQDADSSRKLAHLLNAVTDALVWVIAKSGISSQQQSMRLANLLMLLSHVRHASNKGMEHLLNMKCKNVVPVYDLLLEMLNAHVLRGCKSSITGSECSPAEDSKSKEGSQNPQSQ

On to `CC/C(=C(/c1ccc(/C=C/C(=O)O)cc1)c1ccc2[nH]ncc2c1)c1ccc(F)cc1Cl` [BRILANESTRANT], for which the inhibition in vivo at 100 mg/kg in series [1] amounted to 80%.

With `CC(=O)c1c(C)c2cnc(Nc3ccc(N4CCNCC4)cn3)nc2n(C2CCCC2)c1=O` [PALBOCICLIB], in [2], the inhibition in vivo at 60 mg/kg amounted to 91%.

Regarding `O=C(O)c1ccc2c(c1)CCCC(c1ccc(Cl)cc1Cl)=C2c1ccc(O[C@H]2CCN(CCCF)C2)cc1` [AMCENESTRANT], the pIC50 – broadly, the negative decadic logarithm of the IC50, by convention in mol/L – in series [3] is 8.08. The pEC50 (in general, the negative decadic logarithm of the EC50, by convention in mol/L) in [4] is 7.70; in series [5] it was 6.48; in [6] it was 6.23.

As for `O=C1CC[C@H](N2Cc3cc(N4CCN(CC5CCN(c6ccc([C@@H]7c8ccc(O)cc8CC[C@@H]7c7ccccc7)cc6)CC5)CC4)ccc3C2=O)C(=O)N1` [VEPDEGESTRANT], the Activity in series [7] was 95%; in [21] it was 97%; in series [22], 94%. Further, the inhibition in vivo at 30 mg/kg was found to be 65% in series [8]; 113% in [9]; 124% in series [11]; 105% in [12]; 131% in [14]. In series [10], the inhibition in vivo at 10 mg/kg is 98%. For the same molecule, in series [13], the inhibition in vivo at 200 mg/kg stood at 108%. Further, the Cmax (as a rule, the peak of the concentration-time curve) in series [15] worked out at 0.084 µg/mL; in series [16], 0.312 µg/mL; in [17], 0.962 µg/mL. Moreover, the AUC(0-t) (usually the area under the concentration-time curve up to a stated or last time point) at 18 h turned out to be 0.658 µg·h/mL in series [18], 2.54 µg·h/mL in [19] and 5.72 µg·h/mL in [20].

Regarding `CCNCCc1ccc(CN(CC)c2cc(OC)ccc2[C@@H]2CCc3cc(O)ccc3C2)cc1` [ELACESTRANT], the inhibition in vivo at 30 mg/kg in series [23] came to 66%. The inhibition in vivo at 60 mg/kg in [24] was 88%. The inhibition in vivo at 90 mg/kg in [25] worked out at 97%. In addition, in series [26], the inhibition in vivo at 120 mg/kg came to 96%.
